According to patent US20260116957A1, “PHARMACEUTICAL COMPOSITION FOR AMELIORATING ACUTE LUNG INJURY AND ACUTE WORSENING OF PULMONARY FIBROSIS” (priority 2021, published 2026):
Read-outs that look alike come from different tables or passages of the source. Residues, ends and D or L forms follow the SMILES beside them.

Key:
[1] = system: peptidase fraction prepared from Staphylococcus nepalensis culture supernatant (putative serine protease); type: biochemical
[2] = system: A549 alveolar epithelial cells; test: Apoptosis assay of A549 cells (flow cytometry, annexin V / propidium iodide); type: cell-based, human; settings: for concentration at which apoptotic activity is shown: synthetic corisin; for apoptotic activity compared with the parent corisin sequence: single amino acid mutants, FIG. 35
[3] = system: A549 alveolar epithelial cells; test: RT-PCR of mRNA expression of pro-apoptotic and anti-apoptotic factors; type: cell-based, human; settings: 50 μM corisin, 24 hours, vs scrambled peptides
Experimental: Next, the effect of corisin on mRNA expression of markers for pro-apoptotic factors such as Bax and anti-apoptotic factors BIRC1, BIRC5, BIRC7, Bcl2, BclXL, cyclin D1, proliferating cell nuclear antigens, and proliferating Ki-67 were examined. A549 alveolar epithelial cells were cultured in the presence of 50 μM corisin for 24 hours, total mRNA was extracted, and cDNA was prepared and amplified by RT-PCR.

[4] = system: TGFβ1 TG mice with pulmonary fibrosis; test: Corisin-induced acute exacerbation of pulmonary fibrosis in TGFβ1 TG mice; type: in vivo, mouse; settings: TGFβ1 TG mice with fibrosis treated with isotype antibody
Experimental: Next, TGFβ1 TG mice with pulmonary fibrosis were then assigned to two groups having corresponding computed tomography (CT) scan scores (FIG. 18a, b). CT examinations were performed as follows.
Lung CT was performed using a LaTheta LCT-200 micro CT purchased from Hitachi Aloka Medical (Tokyo, Japan). Mice were anesthetized by inhalation of isoflurane and then placed in the prone position to collect data (Non-Patent Literature 19, Reference Literature 61). Seven to nine specialists in pulmonary radiology, blinded to treatment groups, scored the CT findings on the TGFβ1 TG mice with pulmonary fibrosis based on previously reported and validated criteria as follows. Score 1, Normal lung findings; score 2, interim findings; score 3, mild pulmonary fibrosis; score 4, interim findings; score 5, moderate pulmonary fibrosis; score 6, interim findings; and score 7, progressive pulmonary fibrosis (Non-Patent Literature 19). The same criteria were used to score pulmonary inflammation and fibrosis in a BLM-induced pulmonary fibrosis mouse model (FIG. 21b).
A group of fibrosis-free TGFβ1 TG mice administered intratracheal corisin served as a control (FIG. 18a, b). […]

[5] = system: mice with bleomycin-induced pulmonary fibrosis; test: Intratracheal corisin in mice with bleomycin-induced pulmonary fibrosis; type: in vivo, mouse; settings: for CT scores after intratracheal corisin: 300 pg/mouse on day 20
Text: AE-Inducing Action of Corisin in Bleomycin-Induced Pulmonary Fibrosis Bleomycin (BLM)-induced pulmonary fibrosis in mice or rats is the most characterized and commonly used preclinical model for IPF studies (Reference Literature 28). It is unclear whether corisin exacerbates disease in BLM-induced pulmonary fibrosis. To address this question, an experimental model was developed in wild-type (WT) mice by infusing BLM via osmotic minipumps and administering corisin via intratracheal instillation (FIG. 21a). Bleomycin (BLM) or physiological saline (SAL) was infused from osmotic minipumps implanted subcutaneously in the backs of mice according to the experiment schedule for inducing acute exacerbation in mice with bleomycin-induced pulmonary fibrosis shown in FIG. 21a. Computed tomography (CT) scans were performed before and after intratracheal administration of corisin or a scrambled peptide before mouse euthanasia. Mice administered SAL via osmotic minipumps and intratracheal corisin or a scrambled peptide were used as a control. Mice were euthanized 22 days after BLM or SAL pump implantation.
After confirming pulmonary fibrosis onset by chest CT, autologous CT score criteria (FIG. 21b) were used to assign mice into two groups with concordant CT scores.
Wild-type (WT) mice were administered bleomycin (BLM) by osmotic minipump on day 0 and intratracheally instilled (75 μL) with corisin or a scrambled peptide (300 pg/mouse) on day 20 post-pump implantation. CTs were performed as described in Example 2. […] Next, wild-type (WT) mice were administered physiological saline (SAL) by osmotic minipump on day 0 and intratracheally instilled (75 μL) with corisin or a scrambled peptide (300 pg/mouse) on day 20 post-pump implantation.
Next, inflammatory cells and the like in mice with BLM-induced pulmonary fibrosis which had been administered intratracheal corisin were examined. Wild-type (WT) mice were administered bleomycin (BLM) or physiological saline (SAL) by osmotic minipump on day 0 and intratracheally instilled (75 μL) with corisin or a scrambled peptide ([…]) on day 20 post-pump implantation. BALF total cell counts were determined using a NucleoCounter and cell fraction counts were conducted after Giemsa staining using WindRoof image software. Levels of serum amyloid P component (SAP), MUC-1, monocyte chemoattractant protein-1 (MCP-1), periostin, collagen I, and osteopontin were measured by enzyme immunoassay according to the manufacturer's instructions.
Next, caspase-3 cleavage was evaluated by Western blotting and quantified. […] Collagen deposition was evaluated using Masson's trichrome staining and quantified using WindRoof imaging software. Pulmonary tissue content of hydroxyproline was measured by colorimetric analysis using a commercially available kit in accordance with the manufacturer's instructions. […] These findings indicate that corisin also exacerbates disease in BLM-induced pulmonary fibrosis.

[6] = system: Caki-2, HaCaT, ARPE-19, Caco-2, HIEC-6 and ihPOD cells; test: Caspase-3 cleavage by Western blotting in further epithelial cell lines; type: cell-based, human; settings: 10 μg/mL peptide, 24 hours, all cell lines, vs scrambled peptide
Text: Caki-2 cell line derived from proximal tubular epithelium, HaCaT keratinocyte cell line derived from adult skin, ARPE-19 retinal pigment epithelial cell line, Caco-2 cell line derived from colon cancer, and HIEC-6 cell line derived from normal human small intestinal epithelial cells were obtained from the American Type Culture Collection (American Type Culture Collection; Manassas, VA). RPMI 1640 culture medium was purchased from Sigma-Aldrich (St. Louis, Missouri) and fetal bovine serum (FBS) was purchased from Bio Whittaker (Bio Whittaker; Walkersville, Maryland). L-glutamine, penicillin, and streptomycin were obtained from Invitrogen (Carlsbad, California). Caki-2 cells, Caco-2 cells, and ihPOD cells were cultured in RPMI 1640 culture medium, HaCaT cells in DMEM culture medium, ARPE-19 cells in DMEM/F12 culture medium, and HIEC-6 cells in DMEM culture medium.
Each cell line was cultured until subconfluent to examine caspase-3 cleavage by Western blotting. […] Cells were stimulated with 10 μg/mL of a scrambled peptide, corisin, or corisin-like peptide, cultured for 24 hours, and then Western blotting was performed.

[7] = Half-life of corisin in A549 cell culture medium; settings: A549 alveolar epithelial cell culture (cell supernatant), human alveolar (A549) cell culture system, read-out: half-life in the solution
Experimental: In order to ascertain how quickly corisin is metabolized in a cell culture system, the half-life of corisin was investigated. A549 alveolar epithelial cells were cultured in DMEM to which 10% fetal bovine serum had been added until confluent. Next, corisin was inoculated into a cell culture medium at a final concentration of 10 micrograms/mL, and cell supernatant was collected after 0, 1, 3, 6, 12, and 24 hours. The concentration of corisin was measured by an enzyme immunoassay method, and the half-life of corisin was examined. […] Therefore, serum corisin measurements should be performed immediately after the onset of acute exacerbation.

[8] = system: mice having established pulmonary fibrosis; settings: cited from earlier work
[9] = BLM mice, 300 μg/mouse intratracheal, vs scrambled peptide
[10] = BLM mice, corisin vs scrambled peptide

O=C(O)CN(CCN(CC(=O)O)CC(=O)O)CC(=O)O [EDTA, ethylenediaminetetraacetic acid]
suppression of transglycosylase degradation [1]: neither E-64 nor EDTA suppressed transglycosylase degradation

Cl.NCCc1ccc(S(=O)(=O)F)cc1 [Pefabloc SC]
suppression of transglycosylase degradation ([1]; 0.1, 0.3, 1 mM, 37° C. for 0.5, 1 and 2 hours): suppress transglycosylase degradation

CC[C@H](C)[C@H](N)C(=O)N[C@H](C(=O)N[C@@H](CCSC)C(=O)N1CCC[C@H]1C(=O)N[C@@H](CCC(=O)O)C(=O)N[C@@H](CO)C(=O)N[C@@H](CO)C(=O)NCC(=O)N[C@@H](CC(N)=O)C(=O)N1CCC[C@H]1C(=O)N[C@@H](CC(N)=O)C(=O)N[C@@H](C)C(=O)N[C@H](C(=O)N[C@@H](CC(N)=O)C(=O)N1CCC[C@H]1C(=O)N[C@@H](C)C(=O)NCC(=O)N[C@@H](Cc1ccc(O)cc1)C(=O)N[C@@H](CCCNC(=N)N)C(=O)O)C(C)C)C(C)C [corisin, IVMPESSGNPNAVNPAGYR] (H-IVMPESSGNPNAVNPAGYR-OH; N-terminus and C-terminus assumed)
concentration at which apoptotic activity is shown [2]: 10 pg/mL
concentration at which apoptotic activity is shown ([2]; A549 cells): 1e+07 pg/mL
apoptosis-inducing activity compared to the Staphylococcus haemolyticus peptide ([2]; synthetic peptides, A549 cells, FIG. 3): slightly higher
mRNA expression of anti-apoptotic factors [3]: significantly reduced
mRNA expression of pro-apoptotic factors such as Bax and APAF-1 [3]: significantly increased
CT findings after intratracheal corisin [4]: significantly worse
circulation level of serum amyloid P component [5, 9]: increased
level of MUC-1 [5, 9]: increased
level of collagen I [5, 9]: increased
level of monocyte chemoattractant protein-1 (MCP-1) [5, 9]: increased
level of osteopontin [5, 9]: increased
level of periostin [5, 9]: increased
total number of lymphocytes in BALF [5, 9]: increased significantly
collagen deposition in the lungs [5, 10]: increased
hydroxyproline content in the lungs [5, 10]: increased
caspase-3 cleavage (Western blotting) ([5]; BLM mice, intratracheal corisin vs scrambled peptide): significantly increased
changes in mice administered physiological saline via osmotic minipump ([5]; SAL pump mice without fibrosis): no significant changes
CT scores after intratracheal corisin ([5]; WT mice with BLM-induced pulmonary fibrosis): worsened significantly
CT scores after intratracheal corisin ([5]; mice without pulmonary fibrosis (SAL pump)): did not change
cleavage of caspase-3 [6]: significantly increased
half-life at 10 micrograms/mL [7]: < 1 h
effect of intrapulmonary administration [8]: causes apoptosis of alveolar epithelial cells and acute exacerbation (AE)

IVMPESSGNPNAVNAAGYR [corisin P15A]
apoptotic activity compared with the parent corisin sequence [2]: devoid of apoptotic activity

IVMPESSGNPNAVSPAGYR [corisin N14S]
apoptotic activity compared with the parent corisin sequence [2]: devoid of apoptotic activity
